In patent publication US8663646B2, “P53 peptide vaccine” (priority 2007, dated 2014):
Where no end group is shown, it is not given here.

How the values were obtained:
[1] = biological target: T1, 20S immuno-proteasomes from human B-LCL cell line (JY) (Homo sapiens, UniProt P28062+P28065+P40306); assay: In vitro proteasome mediated digestion of 30-mers, mass spectrometry, immunoproteasome JY; format: biochemical; details: 30 residue long precursor peptides
T1 construct: purified from a mouse B-cell line (RMA) and a human B-LCL cell line (JY); endogenous in cells; host or cells: B-LCL JY cells; 20S proteasome purified from them
Description: (§1) In the context of the invention, “being inefficiently processed by a proteasome” preferably means that within the first hour of digestion by a proteasome less than 1% of total digested peptide is found. The processing by a proteasome is preferably assessed by incubating a purified proteasome, more preferably a human proteasome with a peptide comprising the potential CTL epitope (30 amino acid length approximately) in a proteasome digestion buffer during at least one hour at 37° C. The reaction is subsequently stopped by adding trifluoroacetic acid. Analysis of the digested peptides is performed with electrospray ionization mass spectrometry (see example 1). Even more preferably, the human proteasome is an immunoproteasome from B-LCL JY cells (Kessler J H et al. 2001).
(§2) 20S immuno-proteasomes were purified from a mouse B-cell line (RMA) and a human B-LCL cell line (JY) and 20S household proteasomes were purified from human tumor cell line (HeLa) as described (Kessler J H et al 2001). To assess kinetics, digestions were performed with different incubation periods as indicated. Briefly, peptides containing the (potential) CTL epitopes (30 mers, 20 μg) were incubated with 1 μg of purified proteasome at 37° C. for 1 h, 4 h and 24 h in 300 μl proteasome digestion buffer, trifluoroacetic acid (30 μl) was added to stop the digestion and samples were stored at −20° C. before mass spectrometric analysis. Electrospray ionization mass spectrometry was performed on a hybrid quadrupole time-of-flight mass spectromter, a Q-TOF (Micromass), equipped with an on-line nanoelectrospray interface with an approximate flow rate of […] as described (Kessler J H et al 2001). The peaks in the mass spectrum were searched in the digested precursor peptide using the Biolynx/proteins software (Micromass) supplied with the mass spectrometer. The intensity of the peaks in the mass spectra was used to establish the relative amounts of peptides generated after proteasome digestion. The relative amounts of the peptides are given as a percentage of the total amount of peptide digested by the proteasome at the indicated incubation time. Major cleavage sites are defined as more than >1% of total digested peptide within the first hour.

[2] = biological target: T2, 20S immuno-proteasomes from mouse B-cell line (RMA) (Mus musculus, UniProt O35955+P28063+P28076); assay: In vitro proteasome mediated digestion of 30-mers, mass spectrometry, immunoproteasome RMA; format: biochemical; details: 30 residue long precursor peptides
T2 construct: 20S immuno-proteasomes were purified from a mouse B-cell line (RMA); endogenous in cells; host or cells: RMA cells; 20S proteasome purified from them
Description: as §1, §2

[3] = biological target: T3, 20S household proteasomes from human tumor cell line (HeLa) (Homo sapiens, UniProt P28072+P28074+Q99436); assay: In vitro proteasome mediated digestion of 30-mers, mass spectrometry, household proteasome HeLa; format: biochemical; details: 30 residue long precursor peptides
T3 construct: 20S household proteasomes were purified from human tumor cell line (HeLa); endogenous in cells; host or cells: HeLa cells; 20S proteasome purified from them
Description: as §1, §2

HLA-A*0301 [4] = biological target: T4, HLA-A*0301 (Homo sapiens, UniProt P04439); assay: Stability of peptide-HLA complex, binding at 4° C. and 20° C., HLA-A*0301; details: for Peptide Binding Stability: HLA-A*0301, IC50 at 20° C. vs 4° C.; for HLA binding Stability (Table 5): HLA type A3
T4 construct: B-cell lines used are: CAA (A*0101), EKR (A*0301), BVR (A*1101), VIJF (A*2401); endogenous in cells; host or cells: B-cell line EKR
Description: (§3) Stability of other peptide-HLA complexes was preferably determined as follows. […] Peptides of >50% of the initial complexes was lost within 2 hours were considered unstable. […] The rest was designated as unstable peptide binding.
(§4) Peptides 8-11 residues in length were selected based on typical anchor residues for HLA-A*0101, A*0301, A*1101 and HLA-A*2401 (Rammensee H G et al). The capacity of peptides to bind was tested in a competition based cellular binding assay as previously described (van der Burg S H et al 1995). FL-labeled reference peptides were synthesized as Cys-derivative (van der Burg S H et al 1995). Fluorescence labeled reference peptides used were: YLEPAC(FL)AK (SEQ ID NO: 87) (HLA-A*0101) and KVFPC(FL)ALINK (SEQ ID NO: 88) (HLA-A*1101) (Sette A et al), KVFPC(FL)ALINK (SEQ ID NO: 89) (HLAA*0301) (van der Burg S H et al 1995) and RYLKC(FL)QQLL (SEQ ID NO: 90) (A*2401) (Dai L C et al). B-cell lines used are: CAA (A*0101), EKR (A*0301), BVR (A*1101), VIJF (A*2401). The relative binding capacity of the peptides is expressed as the peptide concentration to inhibit 50% (1050) of the binding of the reference peptide. […] Peptide stabilization for HLA-A*0201 was performed as previously described (van der Burg S H et al, 1996). Peptides of >50% of the initial complexes was lost within 2 hours were considered unstable. Stability of other peptide-HLA complexes was determined as follows. Peptide binding was performed at 4° C. and 20° C. and 1050 were determined. […] The rest was designated as unstable peptide binding.

HLA-A*0301 [5] = biological target: T4, HLA-A*0301; assay: Competition based cellular binding assay, HLA-A*0301 (B-cell line EKR); details: for HLA binding Affinity (Table 5): HLA type A3
HLA-A*2401 [6] = assay: Stability of peptide-HLA complex, binding at 4° C. and 20° C., HLA-A*2401; design: species or system human; details: for HLA binding Stability (Table 5): HLA type A24; for Peptide Binding Stability: HLA-A*2401, IC50 at 20° C. vs 4° C.
Description: as §3, §4

HLA-A*2401 [7] = assay: Competition based cellular binding assay, HLA-A*2401 (B-cell line VIJF); design: species or system human; details: for HLA binding Affinity (Table 5): HLA type A24; for Peptide Binding Affinity: HLA-A*2401, IC50 category
HLA-A*1101 [8] = biological target: T5, HLA-A*1101 (Homo sapiens, UniProt P04439, A114D/D185E/E176A/F33Y/L180Q/S129P/T187R); assay: Competition based cellular binding assay, HLA-A*1101 (B-cell line BVR); details: HLA-A*1101; IC50 category
T5 construct: B-cell lines used are: CAA (A*0101), EKR (A*0301), BVR (A*1101), VIJF (A*2401); endogenous in cells; host or cells: B-cell line BVR

HLA-A*1101 [9] = biological target: T5, HLA-A*1101; assay: Stability of peptide-HLA complex, binding at 4° C. and 20° C., HLA-A*1101; details: HLA-A*1101; IC50 at 20° C. vs 4° C.
Description: as §3, §4

| Peptide Binding Affinity (HLA-A*0301 [5]; HLA-A*0301, IC50 category) | HLA binding Affinity (Table 5) (HLA-A*0301 [5]) | IC50 (HLA-A*0301 [5]; HLA-A*0301, IC50 category, read-out: Peptide Binding Affinity) [µM] | Peptide Binding Affinity (HLA-A*1101 [8]) | Compound | Proteasomal Cleavage of C-terminus, IP (JY) [1] | Proteasomal Cleavage of C-terminus, IP (RMA) [2] | Proteasomal Cleavage of C-terminus, HH (HeLa) [3] | Peptide Binding Stability (HLA-A*0301 [4]) | HLA binding Stability (Table 5) (HLA-A*0301 [4]) | HLA binding Stability (Table 5) (HLA-A*2401 [6]) | Peptide Binding Stability (HLA-A*2401 [6]) | HLA binding Affinity (Table 5) (HLA-A*2401 [7]) | Peptide Binding Affinity (HLA-A*2401 [7]) | Peptide Binding Stability (HLA-A*1101 [9]) |
| --- | --- | --- | --- | --- | --- | --- | --- | --- | --- | --- | --- | --- | --- | --- |
|  |  |  |  | CC(C)C[C@H](NC(=O)[C@@H](NC(=O)[C@H](CC(N)=O)NC(=O)[C@H](CC(N)=O)NC(=O)[C@H](CCC(=O)O)NC(=O)[C@@H]1CCCN1C(=O)[C@H](CC(C)C)NC(=O)[C@H](CC(C)C)NC(=O)[C@@H](N)CCCCN)C(C)C)C(=O)O [p53 24-32] | + (Major cleavage sites are defined as more than >1% of total digested peptide within the first hour) | + (Major cleavage sites are defined as more than >1% of total digested peptide within the first hour) | + (Major cleavage sites are defined as more than >1% of total digested peptide within the first hour) |  |  |  |  |  |  |  |
|  |  |  |  | CC[C@H](C)[C@H](NC(=O)[C@@H](NC(=O)[C@@H](NC(=O)[C@H](CS)NC(=O)[C@H](CC(=O)O)NC(=O)[C@H](CO)NC(=O)CN)[C@@H](C)O)[C@@H](C)O)C(=O)N[C@@H](Cc1c[nH]cn1)C(=O)N[C@@H](Cc1ccc(O)cc1)C(=O)O [p53 226-234] |  | + (Major cleavage sites are defined as more than >1% of total digested peptide within the first hour) | + (Major cleavage sites are defined as more than >1% of total digested peptide within the first hour) |  |  |  |  |  |  |  |
| high |  |  |  | CSCC[C@H](NC(=O)[C@H](CCCCN)NC(=O)[C@H](CC(N)=O)NC(=O)[C@H](CC(C)C)NC(=O)[C@H](C)N)C(=O)N[C@@H](Cc1ccccc1)C(=O)N[C@@H](CS)C(=O)N[C@@H](CCC(N)=O)C(=O)N[C@@H](CC(C)C)C(=O)N[C@@H](C)C(=O)N[C@@H](CCCCN)C(=O)O [p53 129-139] | + (Major cleavage sites are defined as more than >1% of total digested peptide within the first hour) | + (Major cleavage sites are defined as more than >1% of total digested peptide within the first hour) | + (Major cleavage sites are defined as more than >1% of total digested peptide within the first hour) | + (Stable peptides displayed IC50 at 20 °C that deviated <2 times of the IC50 at 4° C.) |  |  |  |  |  |  |
|  | int | 5 to 15 |  | KGQSTSRHK [p53 373-381] | + (Major cleavage sites are defined as more than >1% of total digested peptide within the first hour) | + (Major cleavage sites are defined as more than >1% of total digested peptide within the first hour) | + (Major cleavage sites are defined as more than >1% of total digested peptide within the first hour) | +/− (Peptides that displayed IC50 at 20 °C of more than twice the IC50 at 4 °C but IC50 < 15 μM were considered to bind with intermediate stability.) | − (The rest was designated as unstable peptide binding.) |  |  |  |  |  |
|  |  |  |  | CC(C)C[C@H](NC(=O)[C@H](Cc1ccc(O)cc1)NC(=O)[C@@H](N)CCC(=O)O)C(=O)N[C@@H](CC(=O)O)C(=O)N[C@@H](CC(=O)O)C(=O)N[C@@H](CCCNC(=N)N)C(=O)N[C@@H](CC(N)=O)C(=O)N[C@H](C(=O)N[C@@H](Cc1ccccc1)C(=O)O)[C@@H](C)O [p53 204-212] |  |  |  |  |  | + (Stable peptides displayed IC50 at 20 °C that deviated <2 times of the IC50 at 4° C.) | + (Stable peptides displayed IC50 at 20 °C that deviated <2 times of the IC50 at 4° C.) | high | high |  |
| high | high |  | high | LGFLHSGTAK [p53 111-120] | + (Major cleavage sites are defined as more than >1% of total digested peptide within the first hour) | + (Major cleavage sites are defined as more than >1% of total digested peptide within the first hour) |  | +/− (Peptides that displayed IC50 at 20 °C of more than twice the IC50 at 4 °C but IC50 < 15 μM were considered to bind with intermediate stability.) | +/− (Peptides that displayed IC50 at 20 °C of more than twice the IC50 at 4 °C but IC50 < 15 μM were considered to bind with intermediate stability.) |  |  |  |  | + (Stable peptides displayed IC50 at 20 °C that deviated <2 times of the IC50 at 4° C.) |
|  |  |  |  | CSCC[C@H](N)C(=O)N[C@@H](Cc1ccccc1)C(=O)N[C@@H](CCCNC(=N)N)C(=O)N[C@@H](CCC(=O)O)C(=O)N[C@@H](CC(C)C)C(=O)N[C@@H](CC(N)=O)C(=O)N[C@@H](CCC(=O)O)C(=O)N[C@@H](C)C(=O)N[C@@H](CC(C)C)C(=O)O [p53 340-348, MFRELNEAL] |  |  |  |  |  | +/− (Peptides that displayed IC50 at 20 °C of more than twice the IC50 at 4 °C but IC50 < 15 μM were considered to bind with intermediate stability.) | +/− (Peptides that displayed IC50 at 20 °C of more than twice the IC50 at 4 °C but IC50 < 15 μM were considered to bind with intermediate stability.) | high | high |  |
| high |  |  | high | CSCC[C@H](NC(=O)[C@@H](N)CCCCN)C(=O)N[C@@H](Cc1ccccc1)C(=O)N[C@@H](CS)C(=O)N[C@@H](CCC(N)=O)C(=O)N[C@@H](CC(C)C)C(=O)N[C@@H](C)C(=O)N[C@@H](CCCCN)C(=O)O [p53 132-139] | + (Major cleavage sites are defined as more than >1% of total digested peptide within the first hour) | + (Major cleavage sites are defined as more than >1% of total digested peptide within the first hour) | + (Major cleavage sites are defined as more than >1% of total digested peptide within the first hour) | + (Stable peptides displayed IC50 at 20 °C that deviated <2 times of the IC50 at 4° C.) |  |  |  |  |  | + (Stable peptides displayed IC50 at 20 °C that deviated <2 times of the IC50 at 4° C.) |
